Measured values as given in patent US7696362B2, “Derivatives of artemisinin, and their uses in the treatment of malaria” (Centre National de la Recherche Scientifique, priority 2001, dated 2010).

Experiments:
Solubility in water = assay type: physicochemical; details: hydrochloride
[1] = system: sensitive strains of P. falciparum; assay: IC50 vis-à-vis sensitive strains of P. falciparum; assay type: cell-based; details: Plasmodium falciparum
[2] = system: resistant (W2) strains of P. falciparum; assay: IC50 vis-à-vis resistant (W2) strains of P. falciparum; assay type: cell-based; details: Plasmodium falciparum
Plasmodium berghei = assay: Peters test on mice infected by Plasmodium berghei; assay type: in vivo; details: after 20 days; daily dose of 50 mg/Kg for 4 days

| SMILES | solubility (Solubility in water) [mg/mL] | IC50 [1] [µM] | IC50 [2] [µM] | survival of mice in the Peters test (Plasmodium berghei) |
| --- | --- | --- | --- | --- |
| C[C@@H]1CC[C@H]2C(CN3CCOCC3)=C(C(F)(F)F)O[C@@H]3OC4(C)CC[C@@H]1[C@]32OO4 | > 20 | – | – | – |
| C[C@@H]1CC[C@H]2C(CN3CCN(CCO)CC3)=C(C(F)(F)F)O[C@@H]3OC4(C)CC[C@@H]1[C@]32OO4 | – | 0.017 | 0.003 | all the mice survive |
| C[C@@H]1CC[C@H]2C(CN3CCN(CCO)CC3)=C(C(F)(F)F)O[C@@H]3OC4(C)CC[C@@H]1[C@]32OO4 [drawing 28] | > 50 | – | – | – |
